Results taken from ChEMBL document CHEMBL3885861, “Open TG-GATES”.

Organism: Rattus norvegicus
Assay: Open TG-GATES - Regimen: Daily Repeat
Format: toxicity, organism-based, Sprague-Dawley
Parameters: regimen Daily Repeat, gender Male, age 6 weeks
Conditions: in vivo, po, route gavage; for TP / gamma-GTP / ALP / ALT / AST / BUN / CRE / Cl / DBIL / GLC / IP / K / LDH / Na / PL / RALB / TBIL / TC / TG / Ca: tissue Plasma; for APTT / Bas / Eos / Fbg / Hb / Ht / Lym / MCH / MCHC / MCV / Mono / Neu / PT / Plat / RBC / Ret / WBC: tissue Blood; for KIDNEY_L / KIDNEY_R / KIDNEY_TOTAL: tissue Kidney; for LIVER: tissue Liver
[1] = 300 mg/kg, […], dose level Middle, time 28 day
[2] = 1000 mg/kg, 72 h, dose level High, time 3 day
[3] = 1000 mg/kg, […], dose level High, time 7 day
[4] = 1000 mg/kg, […], dose level High, time 14 day
[5] = 1000 mg/kg, […], dose level High, time 28 day

COC(=O)C1=C(C)NC(C)=C(C(=O)OC)C1c1ccccc1[N+](=O)[O-] [NIFEDIPINE]
TP [1]: 6.1 g/dL | gamma-GTP [1]: 1 IU/L | TERMINAL_BW [2]: 202 g | APTT [2]: 21.7 s | Bas [2]: 0% | Eos [2]: 0.8% | Fbg [2]: 252.6 mg/dL | Hb [2]: 14 g/dL | Ht [2]: 42.2% | Lym [2]: 76.8% | MCH [2]: 20.5 pg | MCHC [2]: 33.2% | MCV [2]: 61.8 fL | Mono [2]: 3.2% | Neu [2]: 18.2% | PT [2]: 14.1 s | Plat [2]: 134.4 x10_4/uL | RBC [2]: 683.2 x10_4/ul | Ret [2]: 7.3% | WBC [2]: 97.2 x10_2/uL | KIDNEY_L [2]: 0.9 g | KIDNEY_R [2]: 0.9 g | KIDNEY_TOTAL [2]: 1.7 g | ALP [2]: 1290.2 IU/L | ALT [2]: 41.6 IU/L | AST [2]: 67.6 IU/L | BUN [2]: 14 mg/dL | CRE [2]: 0.2 mg/dL | Cl [2]: 107.8 meq/L | DBIL [2]: 0.016 mg/dL | GLC [2]: 153 mg/dL | IP [2]: 6.1 mg/dL | K [2]: 4.1 meq/L | LDH [2]: 69.6 IU/L | Na [2]: 143.6 meq/L | PL [2]: 123 mg/dL | RALB [2]: 2.5 g/dL | TBIL [2]: 0.032 mg/dL | TC [2]: 67.2 mg/dL | TG [2]: 54 mg/dL | TP [2]: 5.3 g/dL | gamma-GTP [2]: 0.8 IU/L | TERMINAL_BW [3]: 238.1 g | TERMINAL_BW [4]: 309.6 g | TERMINAL_BW [5]: 388.3 g | APTT [3]: 16.8 s | Bas [3]: 0.4% | Eos [3]: 0.8% | Fbg [3]: 253.4 mg/dL | Hb [3]: 14.1 g/dL | Ht [3]: 42.6% | Lym [3]: 71.4% | MCH [3]: 20.2 pg | MCHC [3]: 33.1% | MCV [3]: 61 fL | Mono [3]: 2.8% | Neu [3]: 23.8% | PT [3]: 14.2 s | Plat [3]: 142.6 x10_4/uL | RBC [3]: 701.2 x10_4/ul | Ret [3]: 5.9% | WBC [3]: 121.8 x10_2/uL | APTT [4]: 21.1 s | Bas [4]: 0.4% | Eos [4]: 0.6% | Fbg [4]: 267.4 mg/dL | Hb [4]: 14.3 g/dL | Ht [4]: 42.8% | Lym [4]: 73.8% | MCH [4]: 20.6 pg | MCHC [4]: 33.5% | MCV [4]: 61.4 fL | Mono [4]: 3% | Neu [4]: 21.4% | PT [4]: 13.8 s | Plat [4]: 120.3 x10_4/uL | RBC [4]: 697.2 x10_4/ul | Ret [4]: 5.8% | WBC [4]: 117.1 x10_2/uL | APTT [5]: 21.7 s | Bas [5]: 0% | Eos [5]: 0.8% | Fbg [5]: 252.6 mg/dL | Hb [5]: 14 g/dL | Ht [5]: 42.2% | Lym [5]: 76.8% | MCH [5]: 20.5 pg | MCHC [5]: 33.2% | MCV [5]: 61.8 fL | Mono [5]: 3.2% | Neu [5]: 18.2% | PT [5]: 14.1 s | Plat [5]: 134.4 x10_4/uL | RBC [5]: 683.2 x10_4/ul | Ret [5]: 7.3% | WBC [5]: 97.2 x10_2/uL | KIDNEY_L [3]: 1 g | KIDNEY_R [3]: 0.9 g | KIDNEY_TOTAL [3]: 1.9 g | KIDNEY_L [4]: 1.2 g | KIDNEY_R [4]: 1.2 g | KIDNEY_TOTAL [4]: 2.4 g | KIDNEY_L [5]: 1.4 g | KIDNEY_R [5]: 1.3 g | KIDNEY_TOTAL [5]: 2.7 g | LIVER [3]: 12.1 g | LIVER [4]: 15.5 g | LIVER [5]: 17.5 g | ALP [3]: 1072.4 IU/L | ALT [3]: 40.4 IU/L | AST [3]: 68.2 IU/L | BUN [3]: 15 mg/dL | CRE [3]: 0.2 mg/dL | Cl [3]: 105.8 meq/L | DBIL [3]: 0.016 mg/dL | GLC [3]: 155.6 mg/dL | IP [3]: 6.4 mg/dL | K [3]: 3.9 meq/L | LDH [3]: 86 IU/L | Na [3]: 144.2 meq/L | PL [3]: 129 mg/dL | RALB [3]: 2.7 g/dL | TBIL [3]: 0.028 mg/dL | TC [3]: 68.8 mg/dL | TG [3]: 70.6 mg/dL | TP [3]: 5.7 g/dL | gamma-GTP [3]: 1 IU/L | ALP [4]: 1620.8 IU/L | ALT [4]: 41.6 IU/L | AST [4]: 66.6 IU/L | BUN [4]: 18.6 mg/dL | CRE [4]: 0.2 mg/dL | Ca [4]: 11 mg/dL | Cl [4]: 104.2 meq/L | DBIL [4]: 0.012 mg/dL | GLC [4]: 172.8 mg/dL | IP [4]: 7.3 mg/dL | K [4]: 4 meq/L | LDH [4]: 51 IU/L | Na [4]: 143.4 meq/L | PL [4]: 161 mg/dL | RALB [4]: 2.8 g/dL | TBIL [4]: 0.018 mg/dL | TC [4]: 84.2 mg/dL | TG [4]: 101.8 mg/dL | TP [4]: 5.9 g/dL | gamma-GTP [4]: 1 IU/L | ALP [5]: 975.4 IU/L | ALT [5]: 40.2 IU/L | AST [5]: 64.4 IU/L | BUN [5]: 18.2 mg/dL | CRE [5]: 0.3 mg/dL | Ca [5]: 10.3 mg/dL | Cl [5]: 106.6 meq/L | DBIL [5]: 0.012 mg/dL | GLC [5]: 162.8 mg/dL | IP [5]: 5.8 mg/dL | K [5]: 3.7 meq/L | LDH [5]: 62.8 IU/L | Na [5]: 144.4 meq/L | PL [5]: 144 mg/dL | RALB [5]: 2.7 g/dL | TBIL [5]: 0.028 mg/dL | TC [5]: 73.6 mg/dL | TG [5]: 115.4 mg/dL | TP [5]: 6 g/dL | gamma-GTP [5]: 1 IU/L
